Reference: patent publication US12186283B2, “Bismuth-thiol compositions and methods of use” (Microbion Corporation, priority 2018, dated 2025)
≈ marks a conversion by molar mass, not a printed value. Where “and” joins values, the source holds several entries; their conditions need not be identical. Identical values can stand only once. Like-named read-outs stand apart in the source and are kept apart here. *1 amine or outer side, *2 acyl side, *3 side chain or, on linkers, in order; H or OH if unused. Where a SMILES comes first, the peptide text is derived from it. Bridges are numbered along the chain shown (N, C = ends). [ ]: non-standard residue; d: D form. The star is where a group is joined. hTyr(3S-OH,4S-OH,3'-OSO3H) = N[C@H](C(=O)O)[C@H](O)[C@@H](O)c1ccc(O)c(OS(=O)(=O)O)c1; Orn(4R-OH,5R-OH) = O=C([C@H](C[C@@H](O)[C@@H](O)N[*:3])N[*:1])[*:2]; Pro(3S-OH,4S-Me) = C[C@H]1CN[C@H](C(=O)O)[C@H]1O; X1 = CCCCCOc1ccc(-c2cc(-c3ccc(C(=O)*)cc3)no2)cc1; Gln(3R-OH) = NC(=O)C[C@@H](O)[C@H](N)C(=O)O; Hyp = O=C(O)[C@@H]1C[C@@H](O)CN1

Key:
Candida spp. [1] = test: Broth microdilution MIC, yeast (Example 13), group statement and QC; assay type: cell-based; details: C. parapsilosis ATCC 22019, comparators, single value
Candida krusei [2] = test: Broth microdilution MIC, yeast (Example 13); assay type: cell-based; details: C. krusei ATCC 6258 (QC, Table 110), comparators, single value
Aspergillus spp. = test: Broth microdilution MIC/MEC, mold (Example 13); assay type: cell-based; details: MEC
E. coli ATCC 25922 = test: Broth microdilution MIC, QC organism (Example 13, Table 110); assay type: cell-based, Escherichia coli
Source text: (§1) MECs were only reported where observed.

S. aureus ATCC 29213 [3] = test: as above; assay type: cell-based, Staphylococcus aureus
Source text: as §1

Candida spp. [4] = details: C. parapsilosis ATCC 22019, CLSI established QC range, cited from earlier work
Candida krusei [5] = details: C. krusei ATCC 6258, CLSI established QC range, cited from earlier work
S. aureus ATCC 29213 [6] = details: control strain ATCC 29213 S. aureus; per CLSI M100-S24 or provided by Microbion; cited from earlier work
P. aeruginosa [7] = test: Checkerboard FIC assay, BisEDT with CF agents (Example 10); assay type: cell-based, Pseudomonas aeruginosa; details: for MIC: agent alone, as observed during FIC testing
[8] = test system: Burkholderia cepacia complex; test: as above; assay type: cell-based, Burkholderia spp.; details: for MIC: agent alone, as observed during FIC testing
P. aeruginosa [9] = details: P. aeruginosa isolate 103, CLSI QC range in parenthesis, cited from earlier work
P. aeruginosa [10] = test: Broth microdilution MIC (Example 10)
[11] = test system: Burkholderia cepacia complex; test: Broth microdilution MIC (Example 10); details: initial MIC testing
[12] = test system: Pseudomonas aeruginosa strain PA01; test: Bacterial killing curves with and without 10% CF patient sputum
[13] = Aerosol particle size distribution of nebulized suspensions (cascade impactor / APS); details: exposure aerosols of the rat efficacy study, In-Tox Mercer Impactor
[14] = A. flavus ATCC 204304 (QC, Table 110)
[15] = A. fumigatus ATCC MYA-3626 (QC, Table 110)

CC[C@H](C)C[C@H](C)CCCCCCCCC(=O)N[C@H]1C[C@@H](O)[C@@H](NCCN)NC(=O)[C@@H]2[C@@H](O)CCN2C(=O)[C@H]([C@H](O)CCN)NC(=O)[C@H]([C@H](O)[C@@H](O)c2ccc(O)cc2)NC(=O)[C@@H]2C[C@@H](O)CN2C(=O)[C@H]([C@@H](C)O)NC1=O [Caspofungin]
MIC 24 hr (Candida spp. [1]): 0.25 µg/mL (≈ 0.229 µM) | MIC 48 hr (Candida spp. [1]): 0.5 µg/mL (≈ 0.457 µM) | MIC 24 hr (Candida krusei [2]): 0.25 µg/mL (≈ 0.229 µM) | MIC 48 hr (Candida krusei [2]): 0.25 µg/mL (≈ 0.229 µM) | MIC 24 hr (MEC) (Aspergillus spp.; [14]): 0.12 | MIC 24 hr (E. coli ATCC 25922): > 64 µg/mL | MIC 24 hr (S. aureus ATCC 29213 [3]): > 64 µg/mL | QC Range 24 hr (Candida spp. [4]): 0.25-1 | QC Range 48 hr (Candida spp. [4]): 0.5-4 | QC Range 24 hr (Candida krusei [5]): 0.12-1 | QC Range 48 hr (Candida krusei [5]): 0.25-2

CC[C@H]1OC(=O)[C@H](C)[C@@H](O[C@H]2C[C@@](C)(OC)[C@@H](O)[C@H](C)O2)[C@H](C)[C@@H](O[C@@H]2O[C@H](C)C[C@H](N(C)C)[C@H]2O)[C@](C)(OC)C[C@@H](C)C(=O)[C@H](C)[C@@H](O)[C@]1(C)O [Clarithromycin]
Expected MIC: acceptable range (S. aureus ATCC 29213 [6]): 0.12 to 0.5 µg/mL | Expected MIC: goal (S. aureus ATCC 29213 [6]): 0.25 µg/mL

CCCCCOc1ccc(-c2cc(-c3ccc(C(=O)N[C@H]4C[C@@H](O)[C@@H](O)NC(=O)[C@@H]5[C@@H](O)[C@@H](C)CN5C(=O)[C@H]([C@H](O)CC(N)=O)NC(=O)[C@H]([C@H](O)[C@@H](O)c5ccc(O)c(OS(=O)(=O)O)c5)NC(=O)[C@@H]5C[C@@H](O)CN5C(=O)[C@H]([C@@H](C)O)NC4=O)cc3)no2)cc1 [Micafungin] (X1-[Orn(4R-OH,5R-OH)]T[Hyp][hTyr(3S-OH,4S-OH,3'-OSO3H)][Gln(3R-OH)][Pro(3S-OH,4S-Me)]; lactam 1-C)
MIC 24 hr (Candida spp. [1]): 0.5 µg/mL (≈ 0.394 µM) | MIC 48 hr (Candida spp. [1]): 2 µg/mL (≈ 1.57 µM) | MIC 24 hr (Candida krusei [2]): 0.5 µg/mL (≈ 0.394 µM) | MIC 48 hr (Candida krusei [2]): 0.5 µg/mL (≈ 0.394 µM) | MIC 24 hr (MEC) (Aspergillus spp.; [14]): 0.06 | MIC 48 hr (MEC) (Aspergillus spp.; [14]): 0.008 | MIC 24 hr (MEC) (Aspergillus spp.; [15]): 0.03 | MIC 48 hr (MEC) (Aspergillus spp.; [15]): 0.008 | MIC 24 hr (E. coli ATCC 25922): > 64 µg/mL | MIC 24 hr (S. aureus ATCC 29213 [3]): > 64 µg/mL | QC Range 24 hr (Candida spp. [4]): 0.5-2 | QC Range 48 hr (Candida spp. [4]): 0.5-4 | QC Range 24 hr (Candida krusei [5]): 0.12-0.5 | QC Range 48 hr (Candida krusei [5]): 0.12-0.5

NC[C@H]1O[C@H](O[C@H]2[C@H](O)[C@@H](O[C@H]3O[C@H](CO)[C@@H](O)[C@H](N)[C@H]3O)[C@H](N)C[C@@H]2N)[C@H](N)C[C@@H]1O [TOB]
MIC (P. aeruginosa [7]; P. aeruginosa isolate 6322): 128 µg/mL | MIC (P. aeruginosa [7]; P. aeruginosa isolate 6977): 128 µg/mL | MIC (P. aeruginosa [7]; P. aeruginosa isolate 7745): 0.5 µg/mL | MIC (P. aeruginosa [7]; P. aeruginosa isolate 8798): 16 µg/mL | MIC (P. aeruginosa [7]; P. aeruginosa isolate 9108): 0.5 µg/mL | MIC ([8]; B. cenocepacia isolate 0548): 32 µg/mL | MIC ([8]; B. cenocepacia isolate 0813): 256 µg/mL | MIC ([8]; B. cepacia isolate 1793): 16 µg/mL | MIC, CLSI QC range (P. aeruginosa [9]; Table 24): (0.25-1) μg/mL | MIC, CLSI QC range (P. aeruginosa [9]; Table 26): (0.25-1) μg/mL | MIC (P. aeruginosa [10]; P. aeruginosa isolate 103 (ATCC 25922), QC strain, initial MIC testing): 1 µg/mL (≈ 2.14 µM) | MIC (P. aeruginosa [10]; P. aeruginosa isolate 103 (ATCC 25922), during FIC testing, each agent tested alone for QC, one replicate): 1 µg/mL | MIC (P. aeruginosa [10]; P. aeruginosa isolate 1497 (TOB-R, AMK-R, CIP-I, AZT-R, COL-R), initial MIC testing): 16 µg/mL (≈ 34.2 µM) | MIC (P. aeruginosa [10]; P. aeruginosa isolate 1530 (TOB-R, AMK-R, CIP-R), initial MIC testing): 32 µg/mL (≈ 68.4 µM) | MIC (P. aeruginosa [10]; P. aeruginosa isolate 1553 (TOB-R, AMK-R, CIP-R), initial MIC testing): >256 µg/mL | MIC (P. aeruginosa [10]; P. aeruginosa isolate 6322 (MEM-R, TOB-R, AMK-R, CIP-R, AZT-R), initial MIC testing): 128 µg/mL (≈ 274 µM) | MIC (P. aeruginosa [10]; P. aeruginosa isolate 6977 (MEM-I, TOB-R, CIP-R, AZT-I), initial MIC testing): 128 µg/mL (≈ 274 µM) | MIC (P. aeruginosa [10]; P. aeruginosa isolate 7745 (MEM-R, CIP-R, AZT-R), initial MIC testing): 0.5 µg/mL (≈ 1.07 µM) | MIC (P. aeruginosa [10]; P. aeruginosa isolate 7754 (MEM-R, TOB-R, CIP-R, AZT-I), initial MIC testing): 32 µg/mL (≈ 68.4 µM) | MIC (P. aeruginosa [10]; P. aeruginosa isolate 7762 (MEM-I, CIP-I), initial MIC testing): 1 µg/mL (≈ 2.14 µM) | MIC (P. aeruginosa [10]; P. aeruginosa isolate 7871 (MEM-R, AZT-I), initial MIC testing): 0.5 µg/mL (≈ 1.07 µM) | MIC (P. aeruginosa [10]; P. aeruginosa isolate 7874, initial MIC testing): 0.5 µg/mL (≈ 1.07 µM) | MIC (P. aeruginosa [10]; P. aeruginosa isolate 7886 (MEM-R, CIP-R, AZT-R), initial MIC testing): 1 µg/mL (≈ 2.14 µM) | MIC (P. aeruginosa [10]; P. aeruginosa isolate 8797 (MEM-R, TOB-R, AMK-R, CIP-R, AZT-R, COL-R), initial MIC testing): >256 µg/mL | MIC (P. aeruginosa [10]; P. aeruginosa isolate 8798 (MEM-R, TOB-R, AMK-R, CIP-R, AZT-R, COL-R), initial MIC testing): 32 µg/mL (≈ 68.4 µM) | MIC (P. aeruginosa [10]; P. aeruginosa isolate 9108 (CIP-R, AZT-I), initial MIC testing): 0.5 µg/mL (≈ 1.07 µM) | MIC ([11]; B. cenocepacia isolate 0548 (CIP-R)): 64 µg/mL (≈ 137 µM) | MIC ([11]; B. cenocepacia isolate 0813 (CPI-I)): 256 µg/mL (≈ 548 µM) | MIC ([11]; B. cepacia isolate 0546): 64 µg/mL (≈ 137 µM) | MIC ([11]; B. cepacia isolate 1793): 64 µg/mL (≈ 137 µM) | MIC ([11]; B. cepacia isolate 9040): 8 µg/mL (≈ 17.1 µM) | MIC ([11]; B. multivorans isolate 1791): 64 µg/mL (≈ 137 µM) | MIC ([11]; B. multivorans isolate 5665 (CIP-I)): 64 µg/mL (≈ 137 µM) | MIC ([11]; B. multivorans isolate 8952 (CIP-I)): 16 µg/mL (≈ 34.2 µM)

NC[C@H]1O[C@H](O[C@H]2[C@H](O)[C@@H](O[C@H]3O[C@H](CO)[C@@H](O)[C@H](N)[C@H]3O)[C@H](N)C[C@@H]2N)[C@H](N)C[C@@H]1O [Tobramycin, reference compound]
FICB (P. aeruginosa [7]; P. aeruginosa 6322, FIC of Tobramycin in combination with BisEDT, panel rows C-G): 1 | MICB (P. aeruginosa [7]; P. aeruginosa 6322, MIC of Tobramycin in combination with BisEDT, panel rows C-G): 128 µg/mL | FICB (P. aeruginosa [7]; P. aeruginosa 6977, Tobramycin FIC in combination with BisEDT, per checkerboard row): 2 | MICB (P. aeruginosa [7]; P. aeruginosa 6977, Tobramycin MIC in combination with BisEDT, per checkerboard row): 256 µg/mL | FICB (P. aeruginosa [7]; P. aeruginosa 7745, Tobramycin FIC in combination with BisEDT, per checkerboard row): 1 | MICB (P. aeruginosa [7]; P. aeruginosa 7745, Tobramycin MIC in combination with BisEDT, per checkerboard row): 0.5 µg/mL | FICB (P. aeruginosa [7]; P. aeruginosa 9108, Tobramycin FIC in combination with BisEDT, per checkerboard row): 1 | MICB (P. aeruginosa [7]; P. aeruginosa 9108, Tobramycin MIC in combination with BisEDT, per checkerboard row): 0.5 µg/mL | FICB ([8]; B. cenocepacia 548, FIC of Tobramycin in combination with BisEDT): 0.25 | FICB ([8]; B. cenocepacia 813, FIC of Tobramycin in combination with BisEDT): 1 | FICB ([8]; B. cepacia 546, Tobramycin FIC in combination with BisEDT, per checkerboard row): 0.5 | MICB ([8]; B. cepacia 546, Tobramycin MIC in combination with BisEDT, per checkerboard row): 16 µg/mL | FICB ([8]; B. cepacia 1793, Tobramycin FIC in combination with BisEDT, per checkerboard row): 0.5 and 1 | MICB ([8]; B. cepacia 1793, Tobramycin MIC in combination with BisEDT, per checkerboard row): 8 µg/mL and 16 µg/mL | FICB ([8]; B. multivorans 1795, FIC of Tobramycin in combination with BisEDT): 1 | MICB ([8]; B. multivorans 1795, MIC of Tobramycin in combination with BisEDT): >256 µg/mL | CFU higher in cultures with sputum than without ([12]; PA01, 1 μg/mL, 10% CF sputum, most time points): 0.5-1 log CFU/mL | effect of CF patient sputum on bactericidal activity ([12]; PA01, 10% CF patient sputum): partially inhibits | MMAD [13]: 2.81 μm
